“And” between values parts separate entries of the source, which are not always exact repeats. Identical values can stand only once. Inconclusive results are not listed.
System: nude mice, HT29 intrarenal xenograft, tumor weight T/C
Assay: NCI In Vivo Anticancer Drug Screen. Data for tumor model HT29;CX-1 Human Adenocarcinoma (MER+) (intrarenal inoculation) in NU/NU Swiss (nude) mice
Conditions: endpoint: mean tumor weight change, higher = larger tumour
Outline: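 Mice with transplanted tumors are dosed with compound while controls get vehicle only. Survival or tumor burden is then assessed per group, and the treated value is expressed relative to control.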

[1] = dose: 150.0 mg/kg/injection, schedule: Q04DX004 (sc), vehicle: saline

## COc1cc2cc(c1Cl)N(C)C(=O)C[C@H](OC(=O)[C@H](C)N(C)C(C)=O)[C@]1(C)O[C@H]1[C@H](C)[C@@H]1C[C@@](O)(NC(=O)O1)[C@H](OC)C=C/C=C(\C)C2
dose: 50.0 micrograms/kg/injection, schedule: Q01DX010 (sc), vehicle: Klucel (hydroxypropylcellulose) (HPC)
  T/C: 40 % of control
dose: 100.0 micrograms/kg/injection, schedule: Q01DX010 (sc), vehicle: Klucel (hydroxypropylcellulose) (HPC)
  T/C: 93 % of control
dose: 200.0 micrograms/kg/injection, schedule: Q01DX010 (sc), vehicle: Klucel (hydroxypropylcellulose) (HPC)
  T/C: 24 % of control

## C[CH2][Sn]([CH2]C)([CH2]C(=O)OC)[CH2]C(=O)OC
dose: 12.5 mg/kg/injection, schedule: Q04DX004 (sc), vehicle: saline with Tween-80
  T/C: 79 % of control
dose: 25.0 mg/kg/injection, schedule: Q04DX004 (sc), vehicle: saline with Tween-80
  T/C: 83 % of control
dose: 50.0 mg/kg/injection, schedule: Q04DX004 (sc), vehicle: saline with Tween-80
  T/C: 79 % of control

## O=C1NC2(CCCCC2)C(=O)N1CCN(CCCl)CCCl
dose: 6.0 mg/kg/injection, schedule: Q01DX010 (sc), vehicle: saline
  T/C: 64 % of control
dose: 24.0 mg/kg/injection, schedule: Q01DX010 (sc), vehicle: saline
  T/C: 21 % of control and 23 % of control
dose: 48.0 mg/kg/injection, schedule: Q01DX010 (sc), vehicle: saline
  T/C: 23 % of control

## COC(=O)Nc1ccc(Cc2ccc(NC(=O)OC)cc2)cc1
dose: 100.0 mg/kg/injection, schedule: Q01DX010 (sc), vehicle: saline with Tween-80
  T/C: 26 % of control
dose: 200.0 mg/kg/injection, schedule: Q01DX010 (sc), vehicle: saline with Tween-80
  T/C: 100 % of control
dose: 400.0 mg/kg/injection, schedule: Q01DX010 (sc), vehicle: saline with Tween-80
  T/C: 152 % of control
dose: 800.0 mg/kg/injection, schedule: Q01DX010 (sc), vehicle: saline with Tween-80
  T/C: 58 % of control

## CC(=O)C(=O)O.CC(=O)C(=O)O.[NH-]C1CCCCC1[NH-].[Pt+2] (stereo unspecified)
dose: 15.0 mg/kg/injection, schedule: Q04DX004 (sc), vehicle: other
  T/C: 64 % of control
dose: 30.0 mg/kg/injection, schedule: Q04DX004 (sc), vehicle: other
  T/C: 64 % of control
dose: 60.0 mg/kg/injection, schedule: Q04DX004 (sc), vehicle: other
  T/C: 47 % of control

## c1ccc([P+](c2ccccc2)(c2ccccc2)c2ccccc2)cc1
dose: 5.0 mg/kg/injection, schedule: Q04DX004 (sc), vehicle: saline
  T/C: 105 % of control
dose: 10.0 mg/kg/injection, schedule: Q04DX004 (sc), vehicle: saline
  T/C: 107 % of control
dose: 20.0 mg/kg/injection, schedule: Q04DX004 (sc), vehicle: saline
  T/C: 68 % of control

## COc1cc2cc(c1Cl)N(C)C(=O)CC(OC(=O)CC(C)C)C1(C)OC1C(C)C1CC(O)(NC(=O)O1)C(OC)/C=C/C=C(C)C2 (stereo unspecified)
dose: 125.0 micrograms/kg/injection, schedule: Q04DX004 (sc), vehicle: saline + alcohol
  T/C: 87 % of control and 99 % of control
dose: 500.0 micrograms/kg/injection, schedule: Q04DX004 (sc), vehicle: saline + alcohol
  T/C: 60 % of control

## O=[N+]([O-])/C=C\c1ccc2c(c1)OCO2
dose: 100.0 mg/kg/injection, schedule: Q01DX010 (sc), vehicle: Klucel (hydroxypropylcellulose) (HPC)
  T/C: 55 % of control
dose: 400.0 mg/kg/injection, schedule: Q01DX010 (sc), vehicle: Klucel (hydroxypropylcellulose) (HPC)
  T/C: 163 % of control
dose: 800.0 mg/kg/injection, schedule: Q01DX010 (sc), vehicle: Klucel (hydroxypropylcellulose) (HPC)
  T/C: 77 % of control

## Cc1cc(SCC(=O)c2ccc(Br)cc2)cc(C)[o+]1
dose: 100.0 mg/kg/injection, schedule: Q01DX010 (sc), vehicle: saline
  T/C: 41 % of control
dose: 200.0 mg/kg/injection, schedule: Q01DX010 (sc), vehicle: saline
  T/C: 76 % of control

## NC(CCC(=O)NC(CS)C(=O)NCC(=O)O)C(=O)O (stereo unspecified)
[1]
  T/C: 78 % of control
dose: 300.0 mg/kg/injection, schedule: Q04DX004 (sc), vehicle: saline
  T/C: 168 % of control
dose: 600.0 mg/kg/injection, schedule: Q04DX004 (sc), vehicle: saline
  T/C: 87 % of control

## COc1cc2c(cc1O)N=C[C@@H]1CCC(O)N1C2=O (mixture of isomers)
dose: 10.0 mg/kg/injection, schedule: Q04DX004 (sc), vehicle: suspension in saline
  T/C: 64 % of control

## Cn1c2nc(=O)n(-c3ccccc3)c(=O)c-2nc2c1CCCC2
dose: 150.0 mg/kg/injection, schedule: Q04DX004 (sc), vehicle: saline with Tween-80
  T/C: 106 % of control
dose: 300.0 mg/kg/injection, schedule: Q04DX004 (sc), vehicle: saline with Tween-80
  T/C: 32 % of control

## C1OC1C1CO1 (stereo unspecified)
dose: 12.5 mg/kg/injection, schedule: Q01DX010 (sc), vehicle: saline
  T/C: 164 % of control
dose: 25.0 mg/kg/injection, schedule: Q01DX010 (sc), vehicle: saline
  T/C: 168 % of control

## CN(CCN(C)C(=O)CCOS(C)(=O)=O)C(=O)CCOS(C)(=O)=O
dose: 75.0 mg/kg/injection, schedule: Q04DX004 (sc), vehicle: saline
  T/C: 64 % of control
[1]
  T/C: 36 % of control

Source: PubChem BioAssay AID206 (DTP/NCI, 2004)
